Test results published in patent US5118670A, “Process and composition for increasing brain dopamine release” (Massachusetts Institute of Technology, priority 1988, dated 1992).

Tested on: striatal dopamine release
Assay: Effect of TRH and tyrosine on striatal dopamine release (in vivo microdialysis)
Design: species or system rats
Text: Groups of 7 male albino rats were implanted with a jugular venous catheter (for administering the drugs and withdrawing blood samples), and a microdialysis probe into the corpus striatum (for sampling fluid in equilibrium with intrasynaptic fluids).
Animals were placed under deep urethane anesthesia for the duration of the experiment. Each animal received 10 micrograms of TRH or a saline placebo, and/or tyrosine at a dose of 20 micrograms per kilogram, or a saline placebo.
Microdialysis samples (23 microliters of artificial cerebrospinal fluid per sample) were then collected at 15 minute intervals for 150 minutes, and rapidly assayed for dopamine, its chief metabolites (DOPAC and HVA), serotonin, and the serotonin metabolite, 5-HIAA.

SMILES | other compounds measured in microdialysate (DOPAC, HVA, serotonin, 5-HIAA) (TRH 10 micrograms alone, anesthetized rats, striatal microdialysis) | increase (from the baseline) in dopamine release (TRH 10 micrograms alone, via jugular venous catheter, urethane-anesthetized male albino rats, corpus striatum microdialysis, after two hours) | effect on dopamine release (higher dose of TRH (50 micrograms) without tyrosine, anesthetized rats, striatal microdialysis) | increase in dopamine release (tyrosine alone, 20 micrograms per kilogram, via jugular venous catheter, anesthetized rats, striatal microdialysis, after two hours)
NC(=O)[C@@H]1CCCN1C(=O)[C@H](Cc1c[nH]cn1)NC(=O)[C@@H]1CCC(=O)N1 [TRH, L-pyroglutamyl-L-histidyl-L-prolineamide] | stable | 190% | 750% | 
N[C@@H](Cc1ccc(O)cc1)C(=O)O [tyrosine] |  |  |  | about 110%
